From PubChem BioAssay (NCI)
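Method: 48-hour compound exposure of cells in 96-well plates, five concentrations, linear interpolation of endpoints. TGI denotes the concentration required for complete inhibition of growth.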

Columns and labels:
Assay in all cases: growth of human tumour cells (NCI), 48 h
NCI-H522 lung = tested on: NCI-H522 lung
HCT-15 colon = tested on: HCT-15 colon
T-47D breast = tested on: T-47D breast
ACHN renal = tested on: ACHN renal
BT-549 breast = tested on: BT-549 breast
HOP-92 NSCLC = tested on: HOP-92 NSCLC
SNB-75 CNS = tested on: SNB-75 CNS
TK-10 renal = tested on: TK-10 renal
OVCAR-4 ovarian = tested on: OVCAR-4 ovarian
U251 CNS = tested on: U251 CNS
SF-295 CNS = tested on: SF-295 CNS
SW-620 colon = tested on: SW-620 colon
UO-31 renal = tested on: UO-31 renal
A498 renal = tested on: A498 renal
M14 melanoma = tested on: M14 melanoma
OVCAR-3 ovarian = tested on: OVCAR-3 ovarian
UACC-62 melanoma = tested on: UACC-62 melanoma
LOX IMVI melanoma = tested on: LOX IMVI melanoma
HT29 colon = tested on: HT29 colon
MDA-MB-231 breast = tested on: MDA-MB-231 breast

| Structure (SMILES) | TGI (NCI-H522 lung) [µM] | TGI (HCT-15 colon) [µM] | TGI (T-47D breast) [µM] | TGI (ACHN renal) [µM] | TGI (BT-549 breast) [µM] | TGI (HOP-92 NSCLC) [µM] | TGI (SNB-75 CNS) [µM] | TGI (TK-10 renal) [µM] | TGI (OVCAR-4 ovarian) [µM] | TGI (U251 CNS) [µM] | TGI (SF-295 CNS) [µM] | TGI (SW-620 colon) [µM] | TGI (UO-31 renal) [µM] | TGI (A498 renal) [µM] | TGI (M14 melanoma) [µM] | TGI (OVCAR-3 ovarian) [µM] | TGI (UACC-62 melanoma) [µM] | TGI (LOX IMVI melanoma) [µM] | TGI (HT29 colon) [µM] | TGI (MDA-MB-231 breast) [µM] |
| --- | --- | --- | --- | --- | --- | --- | --- | --- | --- | --- | --- | --- | --- | --- | --- | --- | --- | --- | --- | --- |
| N#CC1C(=O)NC2=C(CCOc3c2ccc2ccccc32)C1c1ccc(F)cc1 (stereo not drawn) | > 100 | > 100 | 99.5 | 26.1 | > 100 | 28.5 | 54 | 43.2 | > 100 | 24.7 | 42.4 | > 100 | 24.7 | 44.1 | 68 | 40.7 | – | – | – | – |
| COc1cc2c(cc1OC)C1(c3ccccc3)ON=C(c3ccccc3)N1CS2 (stereo not drawn) | > 100 | > 100 | – | > 100 | – | > 100 | > 100 | > 100 | > 100 | > 100 | > 100 | > 100 | > 100 | > 100 | > 100 | > 100 | > 100 | > 100 | > 100 | – |
| O=C1c2cscc2C(=O)c2c(OCc3ccccc3)ccc(OCc3ccccc3)c21 | > 100 | – | > 100 | > 100 | – | > 100 | > 100 | > 100 | > 100 | – | > 100 | > 100 | > 100 | – | > 100 | > 100 | > 100 | > 100 | > 100 | > 100 |
| N#Cc1nc(C2SCCCS2)oc1N | – | > 100 | – | > 100 | – | > 100 | 0.843 | > 100 | > 100 | > 100 | – | > 100 | – | > 100 | > 100 | – | > 100 | > 100 | > 100 | > 100 |
| CSC1CC2C(CC1(C)SC)C2(C)C (stereo not drawn) | > 100 | > 100 | – | > 100 | – | 53.9 | 83.9 | > 100 | > 100 | > 100 | > 100 | > 100 | > 100 | > 100 | > 100 | > 100 | > 100 | > 100 | > 100 | – |
| CCC(C)C(NC(=O)c1c2ccccc2nc2ccccc12)C(=O)O (stereo not drawn) | > 100 | > 100 | – | > 100 | 94.1 | > 100 | > 100 | > 100 | > 100 | > 100 | > 100 | > 100 | > 100 | > 100 | > 100 | > 100 | > 100 | > 100 | > 100 | > 100 |
| N#Cc1nc(NC(=O)c2ccccc2)sc1N | > 10 | > 10 | > 10 | > 10 | – | > 10 | > 10 | > 10 | > 10 | > 10 | > 10 | > 10 | > 10 | > 10 | > 10 | > 10 | > 10 | > 10 | > 10 | > 10 |
| Cc1ccc(C(O)/C(=N/N)c2nc3ccc([N+](=O)[O-])cc3[nH]c2=O)cc1 (stereo not drawn) | > 100 | > 100 | – | > 100 | – | > 100 | > 100 | > 100 | > 100 | > 100 | > 100 | > 100 | > 100 | – | > 100 | > 100 | > 100 | > 100 | > 100 | – |
| CCOC(=O)NC(C(C(=O)OCC)C(=O)OCC)(C(F)(F)F)C(F)(F)F | > 100 | > 100 | > 100 | > 100 | – | > 100 | > 100 | > 100 | > 100 | > 100 | > 100 | > 100 | > 100 | > 100 | > 100 | > 100 | > 100 | > 100 | > 100 | > 100 |
| CCN(CC)CCNc1ccc2ncn3c4c(OC)ccc(=O)c4c(O)c1c23 | > 39.7 | > 100 | > 100 | > 100 | > 100 | > 62.1 | > 100 | > 100 | > 100 | > 100 | > 100 | > 43.8 | > 100 | – | > 100 | > 100 | > 100 | – | > 57.8 | > 100 |
| COc1cc(S(=O)(=O)Nc2ccc(-c3csc(/N=C\C=C\c4ccccc4)n3)cc2)ccc1Cl | > 100 | > 100 | 80.7 | > 100 | > 100 | 75.9 | > 100 | > 100 | > 100 | – | > 100 | > 100 | > 100 | 50.5 | > 100 | > 100 | > 100 | > 100 | > 100 | – |
| CCN1C(=O)C(N=[N+]=[N-])(c2ccccc2)C(=O)c2ccccc21 (stereo not drawn) | > 100 | > 100 | – | > 100 | – | > 100 | > 100 | > 100 | > 100 | > 100 | > 100 | > 100 | > 100 | – | > 100 | > 100 | > 100 | > 100 | > 100 | – |
| CC(=O)O[C@]12CCCCC1C1(O)C(O)CCCC[C@H]12 (stereo partly drawn) | > 100 | > 100 | – | > 100 | – | – | > 100 | > 100 | > 100 | > 100 | > 100 | > 100 | > 100 | – | > 100 | – | > 100 | > 100 | > 100 | – |
| ClCCCC1COc2ccccc2O1 (stereo not drawn) | > 100 | > 100 | – | > 100 | > 100 | > 100 | > 100 | > 100 | > 100 | > 100 | > 100 | > 100 | > 100 | – | > 100 | > 100 | > 100 | – | > 100 | – |
| O=C(/C=C/c1cccs1)c1ccc(Cl)s1 | – | 35.2 | > 100 | > 100 | – | – | > 100 | > 100 | > 100 | > 100 | > 100 | 51.7 | 38.6 | > 100 | > 100 | – | > 100 | – | > 10 | > 100 |
| CC(=O)[C@]1(C)[C@H](C)O[C@](C)(CO)[C@H]1O[Si](C)(C)c1ccccc1 | 52.3 | 84.6 | 97.9 | > 100 | – | > 100 | > 100 | > 100 | > 100 | > 100 | > 100 | > 100 | 46.6 | > 100 | > 100 | > 100 | > 100 | 44.4 | > 100 | > 100 |
| COC1CC(n2ccc(=O)[nH]c2=O)OC1CO (stereo not drawn) | > 100 | > 100 | > 100 | > 100 | – | > 100 | – | – | > 100 | > 100 | > 100 | > 100 | > 100 | > 100 | > 100 | > 100 | > 100 | > 100 | > 100 | > 100 |
| COc1ccc(C(=O)C(CC2C(=O)CC(C)(C)C(C(=O)C(=O)Nc3c(C)cccc3C)C2=O)c2ccc(OC)cc2)cc1 (stereo not drawn) | > 100 | > 100 | – | > 100 | > 100 | > 100 | > 100 | > 100 | > 100 | > 100 | > 100 | > 100 | > 100 | – | > 100 | > 100 | > 100 | > 100 | > 100 | > 100 |
| CCOc1ccc(N=Nc2c(-c3ccccc3)nn(C(=O)CC(=O)Nc3cccc(C)c3)c2-c2ccccc2)cc1 | > 100 | – | – | > 100 | – | > 100 | > 100 | > 100 | > 100 | > 100 | > 100 | > 100 | > 100 | – | > 100 | > 100 | > 100 | > 100 | > 100 | – |
| Cc1nc2ccc(S(=O)(=O)Nc3ccccc3Cl)cc2c(=O)n1NC(=O)CNc1ccccc1Cl | > 100 | > 100 | – | > 100 | > 100 | > 100 | > 100 | > 100 | > 100 | > 100 | > 100 | > 100 | > 100 | – | > 100 | > 100 | > 100 | > 100 | > 100 | > 100 |
| Cc1cccc2c(N)c3cccc(C(=O)NCCN4CCOCC4)c3nc12 | 1.86 | 6.39 | – | 13.1 | 8.54 | 23.2 | 1.32 | 18.6 | 6.69 | 20.5 | 10.9 | 26.1 | 8.26 | 5 | 7.33 | 16.9 | 3.18 | 4.28 | 3.99 | 4.55 |
| Cc1cc(S(=O)(=O)Nc2nc(N)nc(N(C)C)n2)c(SC(C(=O)O)c2ccccc2)cc1Cl (stereo not drawn) | > 10 | > 10 | > 10 | > 10 | > 10 | > 10 | > 10 | > 10 | > 10 | > 10 | > 10 | > 10 | > 10 | > 10 | > 10 | > 10 | – | > 10 | > 10 | – |
| COc1ccc(/C(Cl)=C(\CNc2ccccn2)c2ccccc2)cc1OC | > 100 | > 100 | > 100 | > 100 | – | > 100 | > 100 | > 100 | > 100 | > 100 | > 100 | > 100 | > 100 | > 100 | – | – | > 100 | > 100 | > 100 | > 100 |
| Nc1ccc(-c2nc3ccccc3s2)cc1F | > 100 | > 100 | – | 74.4 | > 100 | > 100 | 82 | – | > 100 | > 100 | 94 | > 100 | > 100 | 4.46 | > 100 | 77.6 | 53.4 | > 100 | > 100 | 79 |
| Cc1cn(C2CC(N=[N+]=[N-])C(C(=O)O)O2)c(=O)[nH]c1=O (stereo not drawn) | > 100 | > 100 | – | > 100 | > 100 | > 100 | > 100 | > 100 | > 100 | > 100 | – | > 100 | > 100 | > 100 | > 100 | > 100 | > 100 | – | > 100 | > 100 |
| O=C1NCC2(CCNCC2)N1 | – | > 100 | > 100 | > 100 | – | > 100 | > 100 | > 100 | > 100 | > 100 | > 100 | > 100 | > 100 | > 100 | > 100 | – | > 100 | > 100 | > 100 | > 100 |
| COC(=O)C1CCC[C@H]2C(CO)=C(C)C(=O)[C@@H]12 (stereo partly drawn) | > 100 | > 100 | – | > 100 | – | > 100 | > 100 | > 100 | > 100 | > 100 | > 100 | > 100 | > 100 | > 100 | > 100 | – | > 100 | – | > 100 | – |
